Test results as given in patent publication US9205129B2, “Methods of treatment and screening assays for HIF-1α regulation” (University of Rochester, priority 2009, dated 2015).
Peptide text beside a SMILES is read from it. * marks the point of attachment. Cbz = O=C(OCc1ccccc1)*

Experiments:
[1] = test system: mouse HIF-1α (Myc-HIF-6×His-V5); test: Western blot of V5-tagged mouse HIF-1α expressed in N2A neuroblastoma line; format: cell-based; conditions: N2A cells, 24 hours post-transfection (FIG. 7A)
Experimental: (§1) FIGS. 7A-C illustrate in vitro characterization and purification of HIF-1α cleavage product. […] Effects of MKP overexpression were tested by co-expressing either empty plasmid (pSG5) or vector expressing wildtype MKP-1 (pSG5-MKPwt; compare lanes 1 vs 2 & 3). Parallel samples were also treated with the proteosome inhibitor MG132 to determine whether sub fragments could be stabilized. Full-length and c-terminal fragments were identified using the carboxy-terminal V5 tag. FIG. 7B depicts optimization of expression conditions for human HIF-V5-6×His. Full-length and the proteolytic cleavage form of human HIF-1α are observed when expressed in the mouse N2A line. Other bands are shown as present in both samples and are cross reactive contaminants with V5 antibody. FIG. 7C illustrates affinity purification of the c-terminal HIF-1α fragment using the 6×His tag resin. N2A cells were transfected with the empty (pUB6-MCS) or HIF-expressing plasmids (pUb6-hHIF) and exposed to MG132 to induce fragment accumulation.
Cell lysates were obtained by rinsing monolayers with ice-cold PBS×1 followed by the addition of RIPA buffer containing both protease and phosphatase inhibitor cocktails (Sigma-Aldrich, St. Louis, Mo.). Samples were boiled in Laemmeli buffer and electrophoresed under reducing conditions on polyacrylamide gels. […]

[2] = test system: human HIF-1α (HIF-V5-6×His); test: Western blot of human HIF-1α fusion expressed in N2A line; format: cell-based; conditions: human HIF-1α fusion in N2A line treated with MG132 (FIG. 7B)
Experimental: as §1
The addition of MKPwt reduced overall levels of both full-length and C-terminal fragments. […] Bands correlating to full length (approximately 110 kDa) and the c-terminal fragment (running at approximately 48 kDa) were isolated from polyacrylamide gels and subjected to LC-MS/MS. […]

HIF-1α (myc-HIF-V5) = test: Cycloheximide pulse-chase / Western blot of myc-HIF-V5 in transfected HN33 cells; format: cell-based, mouse
Experimental: Cell lysates were obtained by rinsing monolayers with ice-cold PBS×1 followed by the addition of RIPA buffer containing both protease and phosphatase inhibitor cocktails (Sigma-Aldrich, St. Louis, Mo.). Samples were boiled in Laemmeli buffer and electrophoresed under reducing conditions on polyacrylamide gels. Proteins were transferred to PVDF membranes and blocked in TBS-T ([…] Tris-HCl, pH 8.0, 0.9% NaCl, and 0.1% Tween-20™) containing 5% non-fat dry milk for 1 h at room temperature. Antibodies used in this study included: NeuN (Chemicon, Temecula, Calif.; 1:500), GFP, HIF-1α (Novus Biologicals, NB-100-449 and NB-100-131, Littleton, Colo.), TUJ1 & MKP-1 (Santa Cruz Biologicals, San Diego, Calif.; 1:500) Caspase 9, cleaved caspase-3, -9, -12, and cleaved PARP (CST, Danvers, Mass.). Blots were exposed to HRP conjugated secondary antibodies (Santa Cruz Biologicals, CA) prior to chemiluminescent detection (Amersham). To resolve molecular weight changes in HIF-1α, crude lysates were run on 15% PAGE gels.
The cDNA for mouse HIF-1α was generated by RT-PCR using total cDNA from HN33.11 cultures using Superscript III according to the manufacturer's instructions using the random hexamer method (Invitrogen, Carlsbad, Calif.). PCR was performed using forward (5′-[…]-3′ (SEQ ID NO:1)) and reverse (5′-TCAG-[…]-3′ (SEQ ID NO:2)) primers as described (Chun et al., “A New HIF-1 Alpha Variant Induced by Zinc Ion Suppresses HIF-1-Mediated Hypoxic Responses,” J. Cell Sci. 114:4051-61 (2001), which is hereby incorporated by reference in its entirety), and the cDNA was sub-cloned to pCDNA3.1 and sequenced in its entirety. This sequence was sub-cloned by PCR using high fidelity polymerase and both the forward primer (5′-GCGGGATCCA […] GAA-3′ (SEQ ID NO:3)) containing a BamHI site followed by a Kozak consensus sequence and the Myc epitope tag and the reverse primer (5′-ggggcggccgcTAA CTTGATCCAAAGC […]-3′ (SEQ ID NO:4)) containing the Not I site allowing in frame ligation with the V5-6×His tag in pUB6-V5-6×HIS (Invitrogen). […]

HIF-1α = conditions: effect of lambda phosphatase, compared with MEK inhibitor; cited from earlier work

| Compound | detection of V5-reactive C-terminal fragment of HIF-1α [1] | formation of c-terminal HIF-1α fragment [2] | induction of LMW-HIF-1α species (HIF-1α (myc-HIF-V5); FIG. 4D legend, HN33 lysates, CHX pulse-chase and MG132) | effect on MKP-1 mediated destabilization of HIF-1α (HIF-1α (myc-HIF-V5); HN33 cells transfected with dual-tagged vector, normoxic, cycloheximide pulse chase (FIG. 4D)) | accumulation of intermediate myc-HIF-V5 species (HIF-1α (myc-HIF-V5); HN33 cells, independent of MKP-1 levels (FIG. 4D, double asterisk)) | reduction of HIF-1α complex doublet to a single 103 kDa band (HIF-1α) |
| --- | --- | --- | --- | --- | --- | --- |
| CC(C)C[C@@H](C=O)NC(=O)[C@H](CC(C)C)NC(=O)[C@H](CC(C)C)NC(=O)OCc1ccccc1 [MG132] (Cbz-Leu-Leu-Leu-aldehyde) | detected only after treatment | produced the expected c-terminal HIF-1α fragment | inducing several LMW-HIF-1α species | negate the destabilizing effect of MKP-1 | enhanced the accumulation |  |
| COc1cccc(-c2cc(=O)c3ccccc3o2)c1N [PD98059] |  |  |  |  |  | effect mimicked |
